US20230348459A1, “PYRROLIDINE COMPOUND AND USE THEREOF” (SIMCERE PHARMACEUTICAL CO., LTD., priority 2020, published 2023)
Like-named read-outs stand apart in the source and are kept apart here.

How the values were obtained:
[1] = Plasma protein binding rate, equilibrium dialysis, human plasma; type: in vitro ADME; settings: pH 7.4, 6 hours dialysis
Procedure: (§1) The protein binding rate of the compounds of the present invention in the plasma of five species (human, monkey, dog, rat and mouse) was determined by the following test method.
(§2) • 1. Human plasma (BioIVT), beagle dog plasma (BioIVT), SD rat plasma (BioIVT), CD-1 mouse plasma (BioIVT); • 2. 96-well equilibrium dialysis plate (HTDialysis LLC, Gales Ferry, CT, HTD96B), equilibrium dialysis membrane (MWCO 12-14 K, #1101); • 3. Positive control compound warfarin; • 4. ABI QTrap 5500 liquid chromatography-mass spectrometry.
(§3) 1. Preparation of a buffer with a concentration of 100 mM sodium phosphate and 150 mM NaCl: an alkaline solution with a concentration of 14.2 g/L Na2HPO4 and 8.77 g/L NaCl was prepared with ultrapure water, and an acidic solution with a concentration of 12.0 g/L NaH2PO4 and 8.77 g/L NaCl was prepared with ultrapure water. The alkaline solution was titrated with the acidic solution to pH 7.4 to prepare a buffer with a concentration of 100 mM sodium phosphate and 150 mM NaCl.
(§4) 2. Preparation of dialysis membrane: the dialysis membrane was soaked in ultrapure water for 60 minutes to separate the membrane into two pieces, then soaked in 20% ethanol for 20 minutes, and finally soaked in the buffer used for dialysis for 20 minutes.
(§5) 3. Preparation of plasma: the frozen plasma was quickly thawed at room temperature, then the plasma was centrifuged at 3,220 g at 4° C. for 10 min to remove clots, and the supernatant was collected into a new centrifuge tube. The pH of the plasma was measured and recorded, and the plasma with pH of 7-8 was used.
(§6) 3. Preparation of compound-containing plasma samples: 10 mM stock solution of compounds of the present invention or positive control compounds were diluted with DMSO to obtain 200 µM working solution. […]
(§7) The peak areas of the compounds on the buffer side and the plasma side were determined. […]
(§8) All the data was calculated by the Microsoft Excel software. The plasma protein binding rate values of the compounds of the present invention were calculated.

[2] = Plasma protein binding rate, equilibrium dialysis, monkey plasma; type: in vitro ADME; settings: pH 7.4, Cynomolgus monkey plasma, 6 hours dialysis
Procedure: as §1, §2, §3, §4, §5, §6, §7, §8

[3] = Plasma protein binding rate, equilibrium dialysis, rat plasma; type: in vitro ADME; settings: pH 7.4, SD rat plasma, 6 hours dialysis
Procedure: as §1, §2, §3, §4, §5, §6, §7, §8

[4] = tested on: MCF-7 subcutaneous tumor; assay: Growth inhibition in MCF-7 subcutaneous tumor model in mice; type: in vivo, NPG mice; settings: for TGI: 3 weeks; for Average tumor volume Day 0: Day 0 (grouping); for Effect on body weight of mice: at the doses tried
Procedure: Cell inoculation: 0.1 ml/(containing 1 × 10^7) MCF-7 cell suspension (volume ratio of D-PBS : Matrigel = 1 : 1) was inoculated subcutaneously on the right back of each mouse, and the mice were inoculated subcutaneously with 17β-estradiol tablets four days before the cell inoculation.
Administration: The compound # Example 1 was administered at a dose of 1, 3, or 10 mg/kg, orally (PO), once daily (QD) for 3 weeks. The compound # Example 2 was administered at a dose of 10 mg/kg, orally (PO), once daily (QD) for 3 weeks. 8 mice were in the vehicle group and 6 mice were in the administration group.
The diameter of the tumor was measured with vernier calipers twice weekly. The calculation formula of tumor volume was V = 0.5a × b^2, wherein a and b represented the long and short diameters of the tumor, respectively. The body weights of the mice were weighed twice weekly.
The tumor-inhibiting efficacy of the compound was evaluated using tumor growth inhibition (TGI) (%).

[5] = Blood-brain barrier (BBB) permeability in rats; type: in vivo, SD rats; settings: for Kp at 2 h / concentration at 2 h: rat, female SD rats, 100 mg/kg QD, 2 h after administration; for Kp at 2 h: brain/plasma, read-out: B/P ratio
Procedure: Six female SD rats (200-300 g, 6-8 weeks) were randomized into 2 groups, 3 rats/group. Each rat was given the compounds of the present invention, and the vehicle was 0.5% methylcellulose aqueous solution. Animals were fed with water as usual and fasted overnight before the experiment, and feeding was resumed four hours after administration. Plasma and brain tissue were collected from rats of each group 2 h after administration. The whole blood sample collected was placed in a K2EDTA anticoagulation tube and centrifuged for 5 min (12,000 rpm, 4° C.) and then the plasma was taken for later detection. After tissue collection, the tissue was dried with filter paper, and the samples were stored in a -80° C. freezer for later detection.
10 µL of the rat plasma sample was taken and 150 µL of acetonitrile solvent (wherein an internal standard compound was contained) was added to precipitate proteins. After the mixture was vortexed for 5 min, centrifugation (14,000 rpm) was performed for 5 min. The supernatant was diluted 2-fold with water containing 0.1% (v/v) FA and injected into the LC-MS/MS system (AB Sciex Triple Quad 6500+) for the quantitative detection. For the 10x diluted samples, 2 µL of the sample was taken and 18 µL of blank plasma was added. After the mixture was vortexed for 0.5 min, 300 µL of acetonitrile solvent (wherein an internal standard compound was contained) was added to precipitate proteins. The other processing steps were identical to those for the samples not diluted. A calibration standard curve was prepared in SD rat plasma along with plasma quality control samples to determine the plasma concentration.
Brain tissue samples from rat were first homogenized with 4 times the mass volume of PBS homogenate. 20 µL of brain tissue homogenate sample was taken, and 20 µL of blank mouse plasma was added. The mixture was diluted and mixed uniformly, and 600 µL of acetonitrile solvent (wherein an internal standard compound was contained) was added to precipitate proteins. After the mixture was vortexed for 5 min, centrifugation (14,000 rpm) was performed for 5 min. The supernatant was diluted 2-fold with water containing 0.1% (v/v) FA and injected into the LC-MS/MS system (AB Sciex Triple Quad 6500+) for the quantitative detection.

[6] = brain, read-out: Drug concentration in brain
[7] = plasma, read-out: Drug concentration in plasma

| Compound | fraction unbound at 6 h, 1 µM [1] | fraction unbound at 6 h, 1 µM [2] | fraction unbound at 6 h, 1 µM [3] | TGI ([4]; 10 mg/kg PO QD) [%] | Average tumor volume Day 0 ([4]; 10 mg/kg PO QD) [mm^3] | Average tumor volume Day 21 ([4]; 10 mg/kg PO QD) [mm^3] | Effect on body weight of mice [4] | Kp at 2 h [5] | concentration at 2 h [5, 6] [ng/g] | concentration at 2 h [5, 7] [ng/mL] | TGI ([4]; 1 mg/kg PO QD) [%] | Average tumor volume Day 0 ([4]; 1 mg/kg PO QD) [mm^3] | Average tumor volume Day 21 ([4]; 1 mg/kg PO QD) [mm^3] | TGI ([4]; 3 mg/kg PO QD) [%] | Average tumor volume Day 0 ([4]; 3 mg/kg PO QD) [mm^3] | Average tumor volume Day 21 ([4]; 3 mg/kg PO QD) [mm^3] | Tumor shrinkage (in words) ([4]; doses of 3 mg/kg and 10 mg/kg) | Effect on tumor growth (in words) ([4]; orally once daily at 1 mg/kg, 3 mg/kg or 10 mg/kg, P < 0.01) | Blood-brain barrier permeability (in words) ([5]; rats) |
| --- | --- | --- | --- | --- | --- | --- | --- | --- | --- | --- | --- | --- | --- | --- | --- | --- | --- | --- | --- |
| C[C@@H]1Cc2c([nH]c3ccccc23)C(c2c(F)cc(N[C@H]3CCN(CCCF)C3)cc2F)N1CC(F)(F)F (stereo in doubt) [Example 4, (S)-N-(3,5-difluoro-4-((1S,3R)-3-methyl-2-(2,2,2-trifluoroethyl)-2,3,4,9-tetrahydro-1H-pyridino[3,4-b]indol-1-yl)phenyl)-1-(3-fluoropropyl)pyrrolidin-3-amine] | 0.002 | 0.002 | 0.002 |  |  |  |  |  |  |  |  |  |  |  |  |  |  |  |  |
| C[C@@H]1Cc2c([nH]c3ccccc23)C(c2c(F)cc(N[C@H]3CCN(CCCF)C3)cc2F)N1CC(F)(F)CO (stereo in doubt) [Example 7, 3-((1S,3R)-1-(2,6-difluoro-4-(((S)-1-(3-fluoropropyl)pyrrolidin-3-yl)amino)phenyl)-3-methyl-3,4-dihydro-1H-pyridino [3,4-b]indole-2(9H)-yl)-2,2-difluoropropane-1-ol] | 0.005 | 0.023 | 0.015 | 140.09 | 170 | 80 | do not significantly affect the body weight | 0.28 | 703 | 2540 |  |  |  |  |  |  |  |  |  |
| C[C@@H]1Cc2c([nH]c3ccccc23)[C@@H](c2ccc(N[C@H]3CCN(CCCF)C3)cn2)N1CC(F)(F)F [Example 3, N-((S)-1-(3-fluoropropyl)pyrrolidin-3-yl)-6-((1S,3R)-3-methyl-2-(2,2,2-trifluoroethyl)-2,3,4,9-tetrahydro-1H-pyridino[3,4-b]indol-1-yl)pyridine-3-amine] | 0.012 | 0.022 | 0.029 | 138.17 | 177 | 91 | do not significantly affect the body weight | 4.2 | 10600 | 2620 | 89.08 | 183 | 207 | 114.71 | 169 | 136 | shows an effect of shrinking tumor | significant inhibitory effects | excellent blood-brain barrier permeability |
